The source of these data is patent US8436012B2, “Imidazopyridin-2-one derivatives” (Daiichi Sankyo Company, Limited, priority 2008, dated 2013).

One test relates to WM-266-4 cells. Description: Cell Proliferation Inhibitory Test. It is filed as cell-based. The note with it: Homo sapiens, 72 h, cultured three days with test compound, MTT, read-out: 50% cell proliferation inhibitory activity (GI50 value). An outline of the steps:
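Cells cultured overnight, then exposed to serially diluted compound for three days; cell amount read by MTT. GI50 solved from 100×[(T−T0)/(C−T0)]=50, with T0 the value at time of compound addition and C the untreated three-day control.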

For another test, the target named is T1, human mTOR (Homo sapiens, UniProt P42345).
T1 construct: the portion corresponding to 1362-2549aa at the C terminus of human mTOR; made in house
T1 sequence (P42345 1362-2549): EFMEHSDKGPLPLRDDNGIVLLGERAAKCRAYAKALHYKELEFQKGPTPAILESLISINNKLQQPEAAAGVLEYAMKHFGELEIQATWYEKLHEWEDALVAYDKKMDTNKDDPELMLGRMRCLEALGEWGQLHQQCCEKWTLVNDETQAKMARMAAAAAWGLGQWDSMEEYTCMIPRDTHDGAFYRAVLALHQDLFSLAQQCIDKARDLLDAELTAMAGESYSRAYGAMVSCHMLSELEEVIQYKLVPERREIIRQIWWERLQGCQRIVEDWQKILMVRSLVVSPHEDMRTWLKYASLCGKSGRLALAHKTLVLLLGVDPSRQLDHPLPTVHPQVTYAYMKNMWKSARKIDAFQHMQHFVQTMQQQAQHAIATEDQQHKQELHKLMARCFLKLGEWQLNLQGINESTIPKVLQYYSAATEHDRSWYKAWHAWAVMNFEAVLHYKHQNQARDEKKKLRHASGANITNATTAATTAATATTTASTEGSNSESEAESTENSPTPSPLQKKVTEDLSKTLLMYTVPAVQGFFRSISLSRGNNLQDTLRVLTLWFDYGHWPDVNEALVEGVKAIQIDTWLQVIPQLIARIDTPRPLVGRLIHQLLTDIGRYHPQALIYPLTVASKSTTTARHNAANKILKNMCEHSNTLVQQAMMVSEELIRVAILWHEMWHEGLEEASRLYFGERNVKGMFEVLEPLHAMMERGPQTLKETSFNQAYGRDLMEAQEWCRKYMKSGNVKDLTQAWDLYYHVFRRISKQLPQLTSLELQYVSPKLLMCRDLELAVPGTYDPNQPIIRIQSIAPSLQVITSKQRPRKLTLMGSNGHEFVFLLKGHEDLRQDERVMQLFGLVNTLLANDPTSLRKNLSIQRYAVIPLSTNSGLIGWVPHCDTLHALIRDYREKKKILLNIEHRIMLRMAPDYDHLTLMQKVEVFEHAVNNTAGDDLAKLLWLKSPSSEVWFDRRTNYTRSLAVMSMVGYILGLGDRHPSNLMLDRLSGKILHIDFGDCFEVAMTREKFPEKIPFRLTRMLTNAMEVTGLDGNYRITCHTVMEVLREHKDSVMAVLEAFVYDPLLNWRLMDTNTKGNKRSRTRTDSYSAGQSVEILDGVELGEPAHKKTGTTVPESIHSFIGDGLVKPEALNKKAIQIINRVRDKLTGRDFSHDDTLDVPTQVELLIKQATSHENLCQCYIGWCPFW
Description: mTOR Kinase Activity Inhibition Test. It is filed as biochemical. Particulars: His-tagged mTOR (1362C), biotinylated peptide substrate, ATP, 3 hours at room temperature, fluorescence resonance energy transfer 665 nm/620 nm; read-out: IC50 value of mTOR enzyme inhibitory activity. An outline of the steps:
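Purified His-tagged human mTOR (1362–2549aa, from HEK293) was used with biotinylated peptide (8 μg/mL in enzyme solution) in HEPES pH 7.5 with 20 mM MnCl2. Compounds were diluted in 20 μM ATP solution, and the reaction ran 3 h at RT. Phospho-S6K(Thr389) HTRF was read as the 665/620 nm ratio, and IC50 came from % inhibition versus controls.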

Some results are limits rather than exact numbers.

One may read the IC50 as the point on the concentration scale where inhibition reaches its midpoint. Consider `CO[C@@H]1CC[C@H](Cn2c(=O)[nH]c3ncc(-c4cnc5[nH]ccc5c4)cc32)OC1` [Example 136, 2,6-Anhydro-1,3,4-trideoxy-5-O-methyl-1-[2-oxo-6-(1H-pyrrolo[2,3-b]pyridin-5-yl)-2,3-dihydro-1H-imidazo[4,5-b]pyridin-1-yl]-L-threo-hexitol], for which, in the test with WM-266-4 cells, the GI50 was less than 3000 nM. In addition, the half-maximal inhibitory concentration (IC50) at human mTOR was less than 50 nM.
As to `COc1c(-c2cnc3[nH]c(=O)n(C[C@H]4COCCO4)c3c2)cnc2[nH]ccc12` [Example 133, 1-[(2S)-1,4-Dioxan-2-ylmethyl]-6-(4-methoxy-1H-pyrrolo[2,3-b]pyridin-5-yl)-1,3-dihydro-2H-imidazo[4,5-b]pyridin-2-one], in the test on WM-266-4 cells, the GI50 was less than 3000 nM. Besides, on human mTOR, the IC50 is less than 50 nM.
For `O=c1[nH]c2ncc(-c3cnc4[nH]ccc4c3)cc2n1C[C@H]1CC[C@H](O)CO1` (racemic) [Example 111, 2,6-Anhydro-1,3,4-trideoxy-1-[2-oxo-6-(1H-pyrrolo[2,3-b]pyridin-5-yl)-2,3-dihydro-1H-imidazo[4,5-b]pyridin-1-yl]-DL-erythro-hexitol], in that order: less than 3000 nM and less than 50 nM.
For `CO[C@H]1CCO[C@@H](Cn2c(=O)[nH]c3ncc(-c4cnc5[nH]cc(C)c5c4C)cc32)C1` [Example 151, 2,6-Anhydro-1,3,5-trideoxy-1-[6-(3,4-dimethyl-1H-pyrrolo[2,3-b]pyridin-5-yl)-2-oxo-2,3-dihydro-1H-imidazo[4,5-b]pyridin-1-yl]-4-O-methyl-L-threo-hexitol], in that order: less than 3000 nM and less than 50 nM.
Consider `O=c1[nH]c2ncc(-c3cnc4[nH]ccc4c3)cc2n1CCC1=CCOCC1` [Example 48, 1-[2-(3,6-Dihydro-2H-pyran-4-yl)ethyl]-6-(1H-pyrrolo[2,3-b]pyridin-5-yl)-1,3-dihydro-2H-imidazo[4,5-b]pyridin-2-one], for which, in the test with WM-266-4 cells, the GI50 was less than 3000 nM. Besides, the IC50 on human mTOR was less than 50 nM.
Regarding `CO[C@@H]1CCO[C@H](Cn2c(=O)[nH]c3ncc(-c4cnc5[nH]ccc5c4C)cc32)C1` [Example 140, 2,6-Anhydro-1,3,5-trideoxy-4-O-methyl-1-[6-(4-methyl-1H-pyrrolo[2,3-b]pyridin-5-yl)-2-oxo-2,3-dihydro-1H-imidazo[4,5-b]pyridin-1-yl]-D-threo-hexitol], in the test on WM-266-4 cells, the GI50 is less than 3000 nM. Besides, the half-maximal inhibitory concentration (IC50) on human mTOR is less than 50 nM.
For the compound `O=c1[nH]c2ncc(-c3ccc4[nH]ccc4c3)cc2n1CC1CCOCC1` [Example 4, 6-(1H-Indol-5-yl)-1-(tetrahydro-2H-pyran-4-ylmethyl)-1,3-dihydro-2H-imidazo[4,5-b]pyridin-2-one], in the test with WM-266-4 cells, the GI50 is less than 3000 nM. On human mTOR, the IC50 is less than 50 nM.
For the compound `O=c1[nH]c2ncc(-c3cnc4[nH]ccc4c3C(F)(F)F)cc2n1C[C@H]1COCCO1` [Example 122, 1-[(2S)-1,4-Dioxan-2-ylmethyl]-6-(4-(trifluoromethyl)-1H-pyrrolo[2,3-b]pyridin-5-yl)-1,3-dihydro-2H-imidazo[4,5-b]pyridin-2-one], the GI50 with WM-266-4 cells is less than 3000 nM. Besides, at human mTOR, the 50% inhibitory concentration (IC50) is less than 50 nM.
For the compound `O=c1[nH]c2ncc(-c3ccc4[nH]ccc4n3)cc2n1CC1CCOCC1` [Example 82, 6-(1H-Pyrrolo[3,2-b]pyridin-5-yl)-1-(tetrahydro-2H-pyran-4-ylmethyl)-1,3-dihydro-2H-imidazo[4,5-b]pyridin-2-one], in the test with WM-266-4 cells, the GI50 was less than 3000 nM. Also, on human mTOR, the IC50 is less than 50 nM.
`CO[C@H]1CC[C@@H](Cn2c(=O)[nH]c3ncc(-c4cnc5[nH]cc(Cl)c5c4)cc32)CC1` [Example 115, 6-(3-Chloro-1H-pyrrolo[2,3-b]pyridin-5-yl)-1-[(cis-4-methoxycyclohexyl)methyl]-1,3-dihydro-2H-imidazo[4,5-b]pyridin-2-one]: the GI50 with WM-266-4 cells was less than 3000 nM. For the same compound, at human mTOR, the IC50 is less than 50 nM.
